Measurements reported in paper PMC11822212, “High-throughput screening identifies Aurora kinase B as a critical therapeutic target for Merkel cell carcinoma” (Nature Communications, 2025).
“And” between values parts separate entries of the source, which are not always exact repeats. Identical values can stand only once. Like-named read-outs stand apart in the source and are kept apart here.

Legend:
Assay in all cases: qHTS cell viability (CellTiter-Glo, 72 h; primary and follow-up small molecule screen)
Assay type in all cases: cell-based, human
MCC26 cells (VN-MCC) = system: MCC26 cells (VN-MCC)
MKL-1 cells (VP-MCC) = system: MKL-1 cells (VP-MCC)
MCC13 cells (VN-MCC) = system: MCC13 cells (VN-MCC)
WAGA cells (VP-MCC) = system: WAGA cells (VP-MCC)
UISO cells (VN-MCC) = system: UISO cells (VN-MCC)
MKL-2 cells (VP-MCC) = system: MKL-2 cells (VP-MCC)
[1] = follow-up screen, MCC26, replicate 1
[2] = follow-up screen, MCC26, replicate 2
[3] = follow-up screen, MCC26, replicate 3
[4] = follow-up screen, MKL-1, replicate 1
[5] = follow-up screen, MKL-1, replicate 2
[6] = follow-up screen, MKL-1, replicate 3
[7] = follow-up screen, MCC13, replicate 1
[8] = follow-up screen, MCC13, replicate 2
[9] = follow-up screen, MCC13, replicate 3
[10] = follow-up screen, WAGA, replicate 1
[11] = follow-up screen, WAGA, replicate 2
[12] = follow-up screen, WAGA, replicate 3
[13] = follow-up screen, UISO, replicate 1
[14] = follow-up screen, UISO, replicate 2
[15] = follow-up screen, UISO, replicate 3
[16] = follow-up screen, MKL-2, replicate 1
[17] = follow-up screen, MKL-2, replicate 2
[18] = follow-up screen, MKL-2, replicate 3

SMILES	Area under the dose-response curve (AUC) (MCC26 cells (VN-MCC))	Area under the dose-response curve (AUC) (MKL-1 cells (VP-MCC))	Area under the dose-response curve (AUC) MCC26 Replicate 1 (MCC26 cells (VN-MCC); [1])	Area under the dose-response curve (AUC) MCC26 Replicate 2 (MCC26 cells (VN-MCC); [2])	Area under the dose-response curve (AUC) MCC26 Replicate 3 (MCC26 cells (VN-MCC); [3])	Area under the dose-response curve (AUC) MKL-1 Replicate 1 (MKL-1 cells (VP-MCC); [4])	Area under the dose-response curve (AUC) MKL-1 Replicate 2 (MKL-1 cells (VP-MCC); [5])	Area under the dose-response curve (AUC) MKL-1 Replicate 3 (MKL-1 cells (VP-MCC); [6])	Area under the dose-response curve (AUC) MCC13 Replicate 1 (MCC13 cells (VN-MCC); [7])	Area under the dose-response curve (AUC) MCC13 Replicate 2 (MCC13 cells (VN-MCC); [8])	Area under the dose-response curve (AUC) MCC13 Replicate 3 (MCC13 cells (VN-MCC); [9])	Area under the dose-response curve (AUC) WAGA Replicate 1 (WAGA cells (VP-MCC); [10])	Area under the dose-response curve (AUC) WAGA Replicate 2 (WAGA cells (VP-MCC); [11])	Area under the dose-response curve (AUC) WAGA Replicate 3 (WAGA cells (VP-MCC); [12])	Area under the dose-response curve (AUC) UISO Replicate 1 (UISO cells (VN-MCC); [13])	Area under the dose-response curve (AUC) UISO Replicate 2 (UISO cells (VN-MCC); [14])	Area under the dose-response curve (AUC) UISO Replicate 3 (UISO cells (VN-MCC); [15])	Area under the dose-response curve (AUC) MKL-2 Replicate 1 (MKL-2 cells (VP-MCC); [16])	Area under the dose-response curve (AUC) MKL-2 Replicate 2 (MKL-2 cells (VP-MCC); [17])	Area under the dose-response curve (AUC) MKL-2 Replicate 3 (MKL-2 cells (VP-MCC); [18])	other results
C[C@]12CC[C@H](O)C[C@H]1CC[C@@H]1[C@@H]2CC[C@]2(C)[C@@H](c3ccc(=O)oc3)CC[C@]12O [Bufalin]	270.7 and 302.4 and 244.7	317.9 and 310.4 and 298.2																			Area under the dose-response curve (AUC) (MCC13 cells (VN-MCC)): 246.2 and 243.7 and 237.7; Area under the dose-response curve (AUC) (WAGA cells (VP-MCC)): 311.5 and 289.3 and 286.6; Area under the dose-response curve (AUC) (UISO cells (VN-MCC)): 235.9 and 234.7 and 201.8; Area under the dose-response curve (AUC) (MKL-2 cells (VP-MCC)): 316.9 and 287.6 and 264.0
Cc1ccc(NC(=O)c2cccc(N(C)C)c2)cc1NC(=O)c1ccc(O)cc1 [ZM-336372]			438.1	425.8	478.4	480.0	490.6	522.7	498.2	493.5	506.1	500.4	604.1	537.5	448.6	464.6	456.5	501.8	535.1	493.2	
C[C@H]1O[C@@H](O[C@H]2[C@@H](O)C[C@H](O[C@H]3[C@@H](O)C[C@H](O[C@H]4CC[C@@]5(C)[C@H](CC[C@@H]6[C@@H]5CC[C@]5(C)[C@@H](C7=CC(=O)OC7)CC[C@]65O)C4)O[C@@H]3C)O[C@@H]2C)C[C@H](O)[C@@H]1O [Digitoxin]																					Area under the dose-response curve (AUC) MCC26 Replicate 1 (MCC26 cells (VN-MCC)): 279.4; Area under the dose-response curve (AUC) MCC26 Replicate 2 (MCC26 cells (VN-MCC)): 294.5; Area under the dose-response curve (AUC) MCC26 Replicate 3 (MCC26 cells (VN-MCC)): 239.6; Area under the dose-response curve (AUC) MKL-1 Replicate 1 (MKL-1 cells (VP-MCC)): 269.2; Area under the dose-response curve (AUC) MKL-1 Replicate 2 (MKL-1 cells (VP-MCC)): 287.7; Area under the dose-response curve (AUC) MKL-1 Replicate 3 (MKL-1 cells (VP-MCC)): 299.6; Area under the dose-response curve (AUC) MCC13 Replicate 1 (MCC13 cells (VN-MCC)): 232.3; Area under the dose-response curve (AUC) MCC13 Replicate 2 (MCC13 cells (VN-MCC)): 249.2; Area under the dose-response curve (AUC) MCC13 Replicate 3 (MCC13 cells (VN-MCC)): 235.6; Area under the dose-response curve (AUC) WAGA Replicate 1 (WAGA cells (VP-MCC)): 276.0; Area under the dose-response curve (AUC) WAGA Replicate 2 (WAGA cells (VP-MCC)): 299.5; Area under the dose-response curve (AUC) WAGA Replicate 3 (WAGA cells (VP-MCC)): 286.7; Area under the dose-response curve (AUC) UISO Replicate 1 (UISO cells (VN-MCC)): 201.4; Area under the dose-response curve (AUC) UISO Replicate 2 (UISO cells (VN-MCC)): 226.6; Area under the dose-response curve (AUC) UISO Replicate 3 (UISO cells (VN-MCC)): 210.4; Area under the dose-response curve (AUC) MKL-2 Replicate 1 (MKL-2 cells (VP-MCC)): 287.6; Area under the dose-response curve (AUC) MKL-2 Replicate 2 (MKL-2 cells (VP-MCC)): 297.9; Area under the dose-response curve (AUC) MKL-2 Replicate 3 (MKL-2 cells (VP-MCC)): 317.5
C[C@]12CCC(=NOCCN)C[C@@H]1C(=O)C[C@@H]1[C@@H]2CC[C@]2(C)C(=O)CC[C@@H]12 [PST-2744 (Istaroxime)]	394.3 and 428.5 and 414.9	437.3 and 438.4 and 450.7																			Area under the dose-response curve (AUC) (MCC13 cells (VN-MCC)): 404.5 and 430.7 and 432.5; Area under the dose-response curve (AUC) (WAGA cells (VP-MCC)): 454.8 and 457.0 and 435.6; Area under the dose-response curve (AUC) (UISO cells (VN-MCC)): 410.4 and 435.6 and 412.5; Area under the dose-response curve (AUC) (MKL-2 cells (VP-MCC)): 441.0 and 431.1 and 445.6
CN(C(Cc1ccc(O[S+](=O)([O-])c2cccc3cnccc23)cc1)C(=O)N1CCN(c2ccccc2)CC1)[S+](=O)([O-])c1cccc2cnccc12 (stereo not drawn) [KN-62]			447.5	438.4	461.3	492.0	481.7	479.5	505.2	474.1	504.9	521.5	471.3	468.9	473.7	471.7	409.6	465.4	466.3	472.5	
CCC(=O)CCCCC[C@@H]1NC(=O)[C@H]2CCCCN2C(=O)[C@H]([C@@H](C)CC)NC(=O)[C@H](Cc2cn(OC)c3ccccc23)NC1=O [Apicidin]																					Area under the dose-response curve (AUC) MCC26 Replicate 1 (MCC26 cells (VN-MCC)): 312.3; Area under the dose-response curve (AUC) MCC26 Replicate 2 (MCC26 cells (VN-MCC)): 327.5; Area under the dose-response curve (AUC) MCC26 Replicate 3 (MCC26 cells (VN-MCC)): 296.4; Area under the dose-response curve (AUC) MKL-1 Replicate 1 (MKL-1 cells (VP-MCC)): 315.8; Area under the dose-response curve (AUC) MKL-1 Replicate 2 (MKL-1 cells (VP-MCC)): 299.2; Area under the dose-response curve (AUC) MKL-1 Replicate 3 (MKL-1 cells (VP-MCC)): 285.0; Area under the dose-response curve (AUC) MCC13 Replicate 1 (MCC13 cells (VN-MCC)): 352.8; Area under the dose-response curve (AUC) MCC13 Replicate 2 (MCC13 cells (VN-MCC)): 341.2; Area under the dose-response curve (AUC) MCC13 Replicate 3 (MCC13 cells (VN-MCC)): 320.0; Area under the dose-response curve (AUC) WAGA Replicate 1 (WAGA cells (VP-MCC)): 264.4; Area under the dose-response curve (AUC) WAGA Replicate 2 (WAGA cells (VP-MCC)): 253.3; Area under the dose-response curve (AUC) WAGA Replicate 3 (WAGA cells (VP-MCC)): 235.6; Area under the dose-response curve (AUC) UISO Replicate 1 (UISO cells (VN-MCC)): 287.8; Area under the dose-response curve (AUC) UISO Replicate 2 (UISO cells (VN-MCC)): 286.2; Area under the dose-response curve (AUC) UISO Replicate 3 (UISO cells (VN-MCC)): 272.4; Area under the dose-response curve (AUC) MKL-2 Replicate 1 (MKL-2 cells (VP-MCC)): 250.3; Area under the dose-response curve (AUC) MKL-2 Replicate 2 (MKL-2 cells (VP-MCC)): 267.1; Area under the dose-response curve (AUC) MKL-2 Replicate 3 (MKL-2 cells (VP-MCC)): 303.9
CN(C)C(=S)SSC(=S)N(C)C [Thiram]			337.3	393.8	315.2	288.7	292.8	242.1	426.5	421.8	374.2	336.4	438.2	469.3	236.0	292.8	254.7	303.0	281.4	269.4	
CO/C1=C\C(C)=C\[C@@H](C)[C@@H](O)[C@@H](C)C/C(C)=C/C=C/[C@H](OC)[C@@H]([C@@H](C)[C@@H](O)[C@H](C)[C@@]2(O)C[C@@H](O)[C@H](C)[C@@H](C(C)C)O2)OC1=O [Bafilomycin A1]			325.4	330.5	331.3	341.8	384.5	316.5	343.3	351.4	328.2	341.4	394.8	342.5	306.5	264.4	311.8	338.8	333.5	368.3	
Cc1nc2ccc(-n3ncc(C(=O)c4cc5ccccc5[nH]4)c3N)cc2[nH]1 [CH5183284 (Debio-1347)]	405.6 and 395.0 and 403.7	508.7 and 488.2 and 500.7																			Area under the dose-response curve (AUC) (MCC13 cells (VN-MCC)): 509.3 and 491.7 and 491.1; Area under the dose-response curve (AUC) (WAGA cells (VP-MCC)): 493.1 and 498.3 and 457.6; Area under the dose-response curve (AUC) (UISO cells (VN-MCC)): 433.7 and 424.4 and 430.0; Area under the dose-response curve (AUC) (MKL-2 cells (VP-MCC)): 485.9 and 459.2 and 468.2
Nc1nc(Cl)nc2c1ncn2[C@@H]1O[C@H](CO)[C@@H](O)[C@@H]1F [Clofarabine]			347.1	310.6	353.8	270.1	265.5	283.6	326.5	337.3	347.1	261.2	248.1	263.5	305.8	296.3	317.2	314.2	343.5	397.2	
